Data: patent US20240294489A1 (Captor Therapeutics S.A., priority 2020, published 2024)

Legend:
Format in all cases: cell-based
KG-1 cells = assay: Cell viability CTG assay, KG-1; conditions: Homo sapiens; KG-1, 72 h, 0.001-50 μM; read-out: KG-1 Geomean absolute IC50 by molecule, 72 H
Protocol: (§1) The effect of various compounds of the invention and various reference compounds on cell viability in various cell lines was investigated, using the Cell Viability—CTG Assay Protocol below. Hep3B, Kelly, H929, KG-1 and SNU-398 cells were maintained in respective cell medium (see Table 8, below). The cells were seeded on the 96-well or 384-white plates, and the compounds to be tested were added at the desired concentration range. Compounds are diluted in DMSO, and the DMSO concentration is kept constant at 0.25% v/v across the assay plate. After 72 h incubation (37° C., 5% CO2), CellTiter-Glo® Reagent (Promega/G7570) was added to the wells. Plates are shaken for 4 minutes and incubated for 8 minutes in the dark prior to reading luminescence (LU) by using the CLARIOstar Multimode Plate Reader. The signal is proportional to the amount of ATP, which is directly proportional to the number of cells present in the culture.
(§2) Luminescence (RLU) values were normalized to DMSO control. Dose response is assessed by non-linear regression and IC50 calculation with the average of technical duplicate of percentage inhibition. IC50 values are reported as absolute IC50 values, being the concentration of test compound at the intersection of the concentration-response curves with T/C=50%. For calculation of mean IC50 values the geometric mean is used.

Kelly cells = assay: Cell viability CTG assay, Kelly; conditions: 72 h, 0.001-50 μM, read-out: Kelly Geomean absolute IC50 by molecule, 72 H
Protocol: as §1, §2

Hep3B cells = assay: Cell viability CTG assay, Hep3B; conditions: Homo sapiens, 72 h, 0.001-50 μM, read-out: Hep3B Geomean absolute IC50 by molecule, 72 H
Protocol: as §1, §2

H929 cells = assay: Cell viability CTG assay, H929; set-up: key to Geomean absolute IC50 by molecule, 72 H: Inactive represents IC50 > 50 μM; C represents 50 μM ≥ IC50 > 5 μM; conditions: H929, 72 h, 0.001-50 μM
Protocol: as §1, §2

Ikaros (IKZF1) = biological target: T1, Ikaros (IKZF1) (Homo sapiens, UniProt Q13422+Q96SW2); assay: Ikaros degradation assay, H929 cell line; conditions: NCI-H929; H929 cells, 20 uM, 24 h; read-out: % of IKZF1 protein reduction
T1 construct: Ikaros degradation in the H929 cell line was investigated; endogenous in cells; host or cells: H929
Protocol: (§3) Cells were seeded on 6- or 12-well plates, and the compounds to be tested were added at the desired concentration range. […] After 24 h incubation (37° C., 5% CO2), cells were harvested, washed and cell lysates were prepared using RIPA lysis buffer. The amount of protein was determined via BCA assay, and the appropriate quantity was then loaded on the precast gel for the protein separation. After primary and secondary Ab staining, the membranes were washed and signals developed. The densitometry analysis was implemented to obtain the numeric values used later in the protein level evaluation process.

SALL4 = biological target: T2, SALL4 (Homo sapiens, UniProt Q96SW2+Q9UJQ4); assay: SALL4 degradation assay, Kelly cell line (Western blot densitometry); conditions: Kelly cells, 24 h; for % of SALL4 protein reduction: 100 nM, average from n ≥ 2 experiments
T2 construct: SALL4 degradation in the Kelly cell line was investigated; endogenous in cells; host or cells: Kelly
Protocol: as §3

T2 sequence (Q9UJQ4 whole entry): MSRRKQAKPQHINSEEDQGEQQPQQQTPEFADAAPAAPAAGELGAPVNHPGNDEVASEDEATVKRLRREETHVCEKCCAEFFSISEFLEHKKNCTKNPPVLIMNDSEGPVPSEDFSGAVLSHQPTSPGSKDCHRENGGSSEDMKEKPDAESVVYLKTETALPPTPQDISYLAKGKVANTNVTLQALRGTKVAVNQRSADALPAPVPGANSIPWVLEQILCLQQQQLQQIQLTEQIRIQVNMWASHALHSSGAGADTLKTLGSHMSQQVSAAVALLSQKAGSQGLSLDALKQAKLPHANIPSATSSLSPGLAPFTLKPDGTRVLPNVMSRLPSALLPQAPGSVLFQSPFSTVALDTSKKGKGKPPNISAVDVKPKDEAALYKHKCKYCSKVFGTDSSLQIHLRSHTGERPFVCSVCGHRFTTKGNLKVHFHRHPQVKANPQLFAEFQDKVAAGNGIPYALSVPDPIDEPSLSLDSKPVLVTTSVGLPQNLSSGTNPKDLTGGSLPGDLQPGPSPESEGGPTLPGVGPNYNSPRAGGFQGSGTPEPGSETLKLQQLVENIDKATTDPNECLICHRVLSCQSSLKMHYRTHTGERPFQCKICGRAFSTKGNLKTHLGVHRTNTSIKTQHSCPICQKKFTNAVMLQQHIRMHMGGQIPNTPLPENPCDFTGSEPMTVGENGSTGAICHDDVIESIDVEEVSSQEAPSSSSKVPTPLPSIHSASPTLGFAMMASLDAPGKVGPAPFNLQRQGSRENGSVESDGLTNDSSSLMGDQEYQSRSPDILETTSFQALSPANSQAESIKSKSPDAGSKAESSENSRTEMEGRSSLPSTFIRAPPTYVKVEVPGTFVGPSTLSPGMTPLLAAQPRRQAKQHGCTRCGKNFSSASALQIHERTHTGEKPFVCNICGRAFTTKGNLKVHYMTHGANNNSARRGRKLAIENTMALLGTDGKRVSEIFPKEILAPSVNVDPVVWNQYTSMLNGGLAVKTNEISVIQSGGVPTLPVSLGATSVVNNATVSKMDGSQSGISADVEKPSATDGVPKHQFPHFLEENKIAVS
T2 sequence (Q96SW2 whole entry): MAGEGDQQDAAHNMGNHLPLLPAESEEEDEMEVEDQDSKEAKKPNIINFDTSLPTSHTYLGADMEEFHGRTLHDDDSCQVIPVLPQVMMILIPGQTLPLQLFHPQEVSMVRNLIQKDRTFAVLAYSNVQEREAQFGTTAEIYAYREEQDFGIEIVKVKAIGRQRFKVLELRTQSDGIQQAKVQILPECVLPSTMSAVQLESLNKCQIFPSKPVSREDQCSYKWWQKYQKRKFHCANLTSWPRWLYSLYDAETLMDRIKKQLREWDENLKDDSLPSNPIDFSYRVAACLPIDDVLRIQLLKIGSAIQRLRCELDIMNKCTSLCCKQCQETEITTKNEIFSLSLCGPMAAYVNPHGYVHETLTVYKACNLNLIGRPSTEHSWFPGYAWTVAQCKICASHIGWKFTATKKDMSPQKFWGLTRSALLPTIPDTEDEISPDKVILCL
T2 sequence (Q16531 whole entry partner): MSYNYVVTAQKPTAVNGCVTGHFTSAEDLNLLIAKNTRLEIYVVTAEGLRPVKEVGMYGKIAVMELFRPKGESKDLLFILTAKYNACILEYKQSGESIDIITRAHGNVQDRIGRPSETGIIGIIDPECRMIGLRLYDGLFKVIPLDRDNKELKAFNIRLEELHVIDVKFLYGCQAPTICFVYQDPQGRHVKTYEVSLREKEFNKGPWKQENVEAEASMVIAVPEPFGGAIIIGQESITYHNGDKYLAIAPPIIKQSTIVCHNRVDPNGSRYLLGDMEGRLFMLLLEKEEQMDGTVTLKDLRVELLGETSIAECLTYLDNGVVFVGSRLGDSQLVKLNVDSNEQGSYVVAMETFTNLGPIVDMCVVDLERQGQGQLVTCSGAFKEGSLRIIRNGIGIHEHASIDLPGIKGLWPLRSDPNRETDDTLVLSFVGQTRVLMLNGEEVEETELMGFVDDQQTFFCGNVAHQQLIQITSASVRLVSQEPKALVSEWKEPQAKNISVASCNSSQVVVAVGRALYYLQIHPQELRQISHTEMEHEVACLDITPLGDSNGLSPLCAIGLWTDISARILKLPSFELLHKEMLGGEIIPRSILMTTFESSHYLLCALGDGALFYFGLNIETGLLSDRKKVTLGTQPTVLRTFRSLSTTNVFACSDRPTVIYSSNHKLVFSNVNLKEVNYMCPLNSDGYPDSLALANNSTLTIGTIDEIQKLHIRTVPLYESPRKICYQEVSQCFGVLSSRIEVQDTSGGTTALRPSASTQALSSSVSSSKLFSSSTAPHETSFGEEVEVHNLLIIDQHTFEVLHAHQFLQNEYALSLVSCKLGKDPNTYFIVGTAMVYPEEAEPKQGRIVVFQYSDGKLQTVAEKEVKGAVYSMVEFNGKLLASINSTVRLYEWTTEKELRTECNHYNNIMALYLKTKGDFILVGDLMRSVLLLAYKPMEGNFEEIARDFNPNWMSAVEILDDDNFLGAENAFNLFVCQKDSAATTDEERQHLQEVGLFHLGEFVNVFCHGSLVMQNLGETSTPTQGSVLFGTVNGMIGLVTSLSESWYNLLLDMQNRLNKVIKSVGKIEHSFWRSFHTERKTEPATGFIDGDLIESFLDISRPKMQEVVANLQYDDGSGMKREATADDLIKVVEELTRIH
T1 sequence (Q13422 whole entry): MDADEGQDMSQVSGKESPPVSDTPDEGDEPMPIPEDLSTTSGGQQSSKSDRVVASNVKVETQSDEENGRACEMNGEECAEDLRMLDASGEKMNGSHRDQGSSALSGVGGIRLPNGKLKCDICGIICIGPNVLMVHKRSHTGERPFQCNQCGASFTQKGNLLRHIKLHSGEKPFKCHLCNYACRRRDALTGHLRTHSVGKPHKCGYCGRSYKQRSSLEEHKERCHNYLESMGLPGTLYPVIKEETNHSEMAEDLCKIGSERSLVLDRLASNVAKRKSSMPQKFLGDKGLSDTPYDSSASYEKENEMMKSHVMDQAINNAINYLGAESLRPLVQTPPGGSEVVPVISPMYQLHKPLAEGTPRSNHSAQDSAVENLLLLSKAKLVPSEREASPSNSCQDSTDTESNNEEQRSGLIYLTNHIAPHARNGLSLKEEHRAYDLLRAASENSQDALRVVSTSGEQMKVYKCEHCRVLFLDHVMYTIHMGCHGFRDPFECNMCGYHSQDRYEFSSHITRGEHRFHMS
T1 sequence (Q96SW2 whole entry): as the sequence (Q96SW2 whole entry) above
T1 sequence (Q16531 whole entry partner): as the sequence (Q16531 whole entry partner) above

CC(=O)Oc1ccc(COC(=O)NCc2ccc3c(c2)CN(C2CCC(=O)NC2=O)C3=O)cc1 (stereo not shown) [Compound 22, 4-(((((2-(2,6-dioxopiperidin-3-yl)-1-oxoisoindolin-5-yl)methyl)carbamoyl)oxy)methyl)phenyl acetate]
IC50 (KG-1 cells): ≤ 100 nM
IC50 (Kelly cells): 100 to 1000 nM
IC50 (Hep3B cells): ≤ 100 nM
IC50 (H929 cells; Homo sapiens, NCI-H929, read-out: Geomean absolute IC50 by molecule, 72 H): 5000 to 50000 nM

C[C@@H](O)[C@H](N)C(=O)NCc1ccc2c(c1)CN(C1CCC(=O)NC1=O)C2=O (stereo partly drawn) [Compound 39, (2S,3R)-2-amino-N-((2-(2,6-dioxopiperidin-3-yl)-1-oxoisoindolin-5-yl)methyl)-3-hydroxybutanamide]
inhibition at 20 µM (Ikaros (IKZF1)): 0 to 24%
IC50 (KG-1 cells): 1000 to 5000 nM
IC50 (Kelly cells): 1000 to 5000 nM
IC50 (Hep3B cells): 100 to 1000 nM
Geomean absolute IC50 by molecule, 72 H (H929 cells): Inactive

CC(OC(=O)NCc1ccc2c(c1)CN(C1CCC(=O)NC1=O)C2=O)OC(=O)C(C)C (stereo not shown) [Compound 23, 1-((((2-(2,6-dioxopiperidin-3-yl)-1-oxoisoindolin-5-yl)methyl)carbamoyl)oxy)ethyl isobutyrate]
% of SALL4 protein reduction (SALL4): >80%
inhibition at 20 µM (Ikaros (IKZF1)): 0 to 24%
IC50 (Hep3B cells): ≤ 100 nM
Geomean absolute IC50 by molecule, 72 H (H929 cells): Inactive

NC(Cc1c[nH]c2ccccc12)C(=O)NCc1ccc2c(c1)CN(C1CCC(=O)NC1=O)C2=O (stereo not shown) [Compound 37, 2-amino-N-((2-(2,6-dioxopiperidin-3-yl)-1-oxoisoindolin-5-yl)methyl)-3-(1H-indol-3-yl)propanamide]
inhibition at 20 µM (Ikaros (IKZF1)): 0 to 24%
IC50 (KG-1 cells): 100 to 1000 nM
IC50 (Kelly cells): 100 to 1000 nM
IC50 (Hep3B cells): ≤ 100 nM
Geomean absolute IC50 by molecule, 72 H (H929 cells): Inactive

NCC(=O)NCc1ccc2c(c1)CN(C1CCC(=O)NC1=O)C2=O (stereo not shown) [Compound 25, 2-amino-N-((2-(2,6-dioxopiperidin-3-yl)-1-oxoisoindolin-5-yl)methyl)acetamide]
inhibition at 20 µM (Ikaros (IKZF1)): 0 to 24%
IC50 (KG-1 cells): 1000 to 5000 nM
IC50 (Kelly cells): 1000 to 5000 nM
IC50 (Hep3B cells): 100 to 1000 nM
Geomean absolute IC50 by molecule, 72 H (H929 cells): Inactive

O=C1CCC(N2C(=O)c3ccccc3C2=O)C(=O)N1 (stereo not shown) [Thalidomide, reference compound]
degradation of SALL4 (SALL4; 0.01 μM, FIG. 1): lower activity
% of SALL4 protein reduction (SALL4): 53%

CC(C)C(NC(=O)OC(C)(C)C)C(=O)NCc1ccc2c(c1)CN(C1CCC(=O)NC1=O)C2=O (stereo not shown) [Compound 31, tert-butyl (1-(((2-(2,6-dioxopiperidin-3-yl)-1-oxoisoindolin-5-yl)methyl)amino)-3-methyl-1-oxobutan-2-yl)carbamate]
inhibition at 20 µM (Ikaros (IKZF1)): 0 to 24%
IC50 (KG-1 cells): 1000 to 5000 nM
IC50 (Kelly cells): 1000 to 5000 nM
IC50 (Hep3B cells): 100 to 1000 nM
Geomean absolute IC50 by molecule, 72 H (H929 cells): Inactive

CC(=O)Oc1cc(C)cc(C)c1C(C)(C)CC(=O)NCc1ccc2c(c1)CN(C1CCC(=O)NC1=O)C2=O (stereo not shown) [Compound 21, 2-[1-({[2-(2,6-dioxopiperidin-3-yl)-1-oxo-2,3-dihydro-1H-isoindol-5-yl]methyl}carbamoyl)-2-methylpropan-2-yl]-3,5-dimethylphenyl acetate]
% of SALL4 protein reduction (SALL4): >80%
IC50 (KG-1 cells): 1000 to 5000 nM
IC50 (Kelly cells): 1000 to 5000 nM
IC50 (Hep3B cells): ≤ 100 nM
Geomean absolute IC50 by molecule, 72 H (H929 cells): Inactive

Cc1oc(=O)oc1COC(=O)NCc1ccc2c(c1)CN(C1CCC(=O)NC1=O)C2=O (stereo not shown) [Compound 24, (5-methyl-2-oxo-2H-1,3-dioxol-4-yl)methyl N-{[2-(2,6-dioxopiperidin-3-yl)-1-oxo-2,3-dihydro-1H-isoindol-5-yl]methyl}carbamate]
inhibition at 20 µM (Ikaros (IKZF1)): 0 to 24%
IC50 (KG-1 cells): ≤ 100 nM
IC50 (Kelly cells): 1000 to 5000 nM
IC50 (Hep3B cells): ≤ 100 nM
Geomean absolute IC50 by molecule, 72 H (H929 cells): Inactive
